Test results as given in ChEMBL document CHEMBL1909046, “DrugMatrix in vitro pharmacology data”.

Columns and labels:
[1] = molecular target: Beta-2 adrenergic receptor (Homo sapiens, UniProt P07550); experiment: DRUGMATRIX: Adrenergic beta2 radioligand binding (ligand: [3H] CGP-12177); type: cell membranes, CHO, Membrane; conditions: cho; Not Active = under 50% inhibition at 10 µM
B2 bradykinin receptor = molecular target: T1, B2 bradykinin receptor (Homo sapiens, UniProt P30411); type: cell membranes, Membrane; conditions: chem-1; note: in other assays of this panel Not Active means under 50% inhibition at 10 µM
T1 sequence (P30411 whole entry): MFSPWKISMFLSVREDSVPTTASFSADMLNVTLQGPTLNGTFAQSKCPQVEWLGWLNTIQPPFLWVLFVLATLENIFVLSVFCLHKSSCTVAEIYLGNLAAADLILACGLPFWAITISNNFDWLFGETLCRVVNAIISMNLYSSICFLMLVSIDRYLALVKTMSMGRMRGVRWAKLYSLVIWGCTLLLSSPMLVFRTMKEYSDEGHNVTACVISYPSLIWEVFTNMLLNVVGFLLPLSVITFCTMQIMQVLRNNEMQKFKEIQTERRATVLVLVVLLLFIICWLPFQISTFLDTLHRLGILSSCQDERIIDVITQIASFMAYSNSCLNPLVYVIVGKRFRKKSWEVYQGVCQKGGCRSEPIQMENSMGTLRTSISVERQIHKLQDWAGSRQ

Thromboxane-A synthase = molecular target: T2, Thromboxane-A synthase (Homo sapiens, UniProt P24557); experiment: biochemical; type: tissue-based, Platelet; conditions: platelet;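 note: enzyme inhibition assay with PGH2 supplied as substrate; in other assays of this panel Not Active means under 50% inhibition at 10 µM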
T2 sequence (P24557 whole entry): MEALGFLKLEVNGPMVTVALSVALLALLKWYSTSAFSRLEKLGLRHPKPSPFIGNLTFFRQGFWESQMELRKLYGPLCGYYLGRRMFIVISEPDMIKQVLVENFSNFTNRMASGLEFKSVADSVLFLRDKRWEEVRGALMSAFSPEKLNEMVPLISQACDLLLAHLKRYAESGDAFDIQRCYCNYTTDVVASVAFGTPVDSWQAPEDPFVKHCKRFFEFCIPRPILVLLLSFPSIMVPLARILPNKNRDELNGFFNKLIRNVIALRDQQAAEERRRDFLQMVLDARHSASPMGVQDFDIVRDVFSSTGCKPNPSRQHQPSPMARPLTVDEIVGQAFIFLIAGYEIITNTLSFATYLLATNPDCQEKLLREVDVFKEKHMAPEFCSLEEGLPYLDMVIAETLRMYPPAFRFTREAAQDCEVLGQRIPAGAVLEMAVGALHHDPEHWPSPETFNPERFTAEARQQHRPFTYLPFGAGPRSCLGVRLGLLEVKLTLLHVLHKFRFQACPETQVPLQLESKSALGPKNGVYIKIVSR

[2] = molecular target: T3, Cholecystokinin receptor type A (Homo sapiens, UniProt P32238); type: cell membranes, Membrane; conditions: 1321-n1; note: in other assays of this panel Not Active means under 50% inhibition at 10 µM
T3 sequence (P32238 whole entry): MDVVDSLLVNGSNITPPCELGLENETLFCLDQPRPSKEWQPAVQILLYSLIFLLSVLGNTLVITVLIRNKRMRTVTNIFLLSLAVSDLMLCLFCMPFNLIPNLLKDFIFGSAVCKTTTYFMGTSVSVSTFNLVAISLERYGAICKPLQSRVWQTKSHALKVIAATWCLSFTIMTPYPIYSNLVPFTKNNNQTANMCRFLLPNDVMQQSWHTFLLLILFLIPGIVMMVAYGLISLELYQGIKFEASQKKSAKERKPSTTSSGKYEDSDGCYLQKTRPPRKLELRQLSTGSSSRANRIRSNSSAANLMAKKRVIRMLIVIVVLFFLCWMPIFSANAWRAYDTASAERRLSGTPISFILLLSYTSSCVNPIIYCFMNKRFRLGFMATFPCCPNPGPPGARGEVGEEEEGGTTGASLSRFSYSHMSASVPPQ

Leukotriene C4 synthase = molecular target: T4, Leukotriene C4 synthase (Cavia porcellus, UniProt A6XA80); type: tissue-based, Lung;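 note: enzyme inhibition assay of leukotriene C4 synthase, using LTA4 as the substrate; in other assays of this panel Not Active means under 50% inhibition at 10 µM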
T4 sequence (A6XA80 whole entry): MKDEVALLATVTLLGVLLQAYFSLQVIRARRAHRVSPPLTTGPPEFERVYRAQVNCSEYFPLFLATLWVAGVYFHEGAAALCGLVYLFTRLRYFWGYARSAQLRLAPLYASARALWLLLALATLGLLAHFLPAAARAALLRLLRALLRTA

Neutrophil elastase = molecular target: T5, Neutrophil elastase (Homo sapiens, UniProt P08246); type: tissue-based
T5 sequence (P08246 whole entry): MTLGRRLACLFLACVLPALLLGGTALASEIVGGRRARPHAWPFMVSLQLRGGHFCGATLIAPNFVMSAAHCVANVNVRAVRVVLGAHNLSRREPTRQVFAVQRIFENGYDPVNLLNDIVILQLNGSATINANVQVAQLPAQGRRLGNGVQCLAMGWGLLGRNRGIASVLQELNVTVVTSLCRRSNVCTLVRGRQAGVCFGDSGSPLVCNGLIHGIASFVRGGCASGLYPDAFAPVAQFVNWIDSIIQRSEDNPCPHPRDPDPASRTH

Cytochrome P450 1A2 = molecular target: T6, Cytochrome P450 1A2 (Homo sapiens, UniProt P05177); conditions: bti-tn-5b1-4; note: in other assays of this panel Not Active means under 50% inhibition at 10 µM
T6 sequence (P05177 whole entry): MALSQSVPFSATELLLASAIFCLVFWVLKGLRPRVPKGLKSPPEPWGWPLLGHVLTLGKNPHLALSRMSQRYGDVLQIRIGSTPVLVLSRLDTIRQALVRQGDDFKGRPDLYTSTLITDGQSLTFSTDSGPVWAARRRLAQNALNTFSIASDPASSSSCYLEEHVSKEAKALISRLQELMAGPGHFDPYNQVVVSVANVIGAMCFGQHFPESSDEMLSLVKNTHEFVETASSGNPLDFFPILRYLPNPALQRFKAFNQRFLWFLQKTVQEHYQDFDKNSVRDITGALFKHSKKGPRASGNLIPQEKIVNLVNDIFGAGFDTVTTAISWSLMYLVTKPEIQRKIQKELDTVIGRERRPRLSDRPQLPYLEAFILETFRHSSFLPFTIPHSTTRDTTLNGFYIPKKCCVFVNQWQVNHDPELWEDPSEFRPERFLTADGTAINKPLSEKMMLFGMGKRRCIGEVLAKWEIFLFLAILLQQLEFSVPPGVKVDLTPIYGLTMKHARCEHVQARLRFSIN

O=C(N/N=C/c1ccc([N+](=O)[O-])o1)c1cc([N+](=O)[O-])cc([N+](=O)[O-])c1O [NIFURSOL]
Not Active: IC50 [1] | IC50 (B2 bradykinin receptor) | IC50 (Thromboxane-A synthase) | IC50 [2] | IC50 (Leukotriene C4 synthase) | IC50 (Neutrophil elastase) | IC50 (Cytochrome P450 1A2) | Ki (Cytochrome P450 1A2)

COC(=O)Nc1nc2ccc(C(=O)c3cccs3)cc2[nH]1 [NOCODAZOLE]
Not Active: IC50 [1] | IC50 (B2 bradykinin receptor) | IC50 (Thromboxane-A synthase) | IC50 [2] | IC50 (Leukotriene C4 synthase) | IC50 (Neutrophil elastase) | IC50 (Cytochrome P450 1A2) | Ki (Cytochrome P450 1A2)

C#CC1(O)CC[C@H]2[C@@H]3CCC4=CC(=O)CC[C@@H]4[C@H]3CC[C@@]21CC (stereo partly drawn) [NORGESTREL]
Not Active: IC50 [1] | IC50 (B2 bradykinin receptor) | IC50 (Thromboxane-A synthase) | IC50 [2] | IC50 (Leukotriene C4 synthase) | IC50 (Neutrophil elastase) | IC50 (Cytochrome P450 1A2) | Ki (Cytochrome P450 1A2)

COC(=O)Nc1nc2ccc([S+]([O-])c3ccccc3)cc2[nH]1 (stereo not drawn) [OXFENDAZOLE]
Not Active: IC50 [1] | IC50 (B2 bradykinin receptor) | IC50 (Thromboxane-A synthase) | IC50 [2] | IC50 (Leukotriene C4 synthase) | IC50 (Neutrophil elastase) | IC50 (Cytochrome P450 1A2) | Ki (Cytochrome P450 1A2)

C[n+]1ccc(-c2cc[n+](C)cc2)cc1.[Cl-].[Cl-] [PARAQUAT DICHLORIDE]
Not Active: IC50 [1] | IC50 (B2 bradykinin receptor) | IC50 (Thromboxane-A synthase) | IC50 [2] | IC50 (Leukotriene C4 synthase) | IC50 (Neutrophil elastase) | IC50 (Cytochrome P450 1A2) | Ki (Cytochrome P450 1A2)

C[n+]1ccccc1/C=N/O.[Cl-] [PRALIDOXIME CHLORIDE]
Not Active: IC50 [1] | IC50 (B2 bradykinin receptor) | IC50 (Thromboxane-A synthase) | IC50 [2] | IC50 (Leukotriene C4 synthase) | IC50 (Neutrophil elastase) | IC50 (Cytochrome P450 1A2) | Ki (Cytochrome P450 1A2)

COc1cc2nc(N3CCN(C(=O)c4ccco4)CC3)nc(N)c2cc1OC [PRAZOSIN]
Not Active: IC50 [1] | IC50 (B2 bradykinin receptor) | IC50 (Thromboxane-A synthase) | IC50 [2] | IC50 (Leukotriene C4 synthase) | IC50 (Neutrophil elastase) | IC50 (Cytochrome P450 1A2) | Ki (Cytochrome P450 1A2)

C[C@]12C=CC(=O)C=C1CC[C@@H]1[C@@H]2[C@@H](O)C[C@@]2(C)[C@H]1CC[C@]2(O)C(=O)CO [PREDNISOLONE]
Not Active: IC50 [1] | IC50 (B2 bradykinin receptor) | IC50 (Thromboxane-A synthase) | IC50 [2] | IC50 (Leukotriene C4 synthase) | IC50 (Neutrophil elastase) | IC50 (Cytochrome P450 1A2) | Ki (Cytochrome P450 1A2)

CC(=O)[C@H]1[C@H](C#N)C[C@H]2[C@@H]3CC=C4C[C@@H](O)CC[C@]4(C)[C@H]3CC[C@@]21C [PREGNENOLONE CARBONITRILE]
Not Active: IC50 [1] | IC50 (B2 bradykinin receptor) | IC50 (Thromboxane-A synthase) | IC50 [2] | IC50 (Leukotriene C4 synthase) | IC50 (Neutrophil elastase) | IC50 (Cytochrome P450 1A2) | Ki (Cytochrome P450 1A2)

CCCN(CCC)S(=O)(=O)c1ccc(C(=O)O)cc1 [PROBENECID]
Not Active: IC50 [1] | IC50 (B2 bradykinin receptor) | IC50 (Thromboxane-A synthase) | IC50 [2] | IC50 (Leukotriene C4 synthase) | IC50 (Neutrophil elastase) | IC50 (Cytochrome P450 1A2) | Ki (Cytochrome P450 1A2)

CCCOc1ccc(C(=O)OCCN(CC)CC)cc1N [PROPARACAINE]
Not Active: IC50 [1] | IC50 (B2 bradykinin receptor) | IC50 (Thromboxane-A synthase) | IC50 [2] | IC50 (Leukotriene C4 synthase) | IC50 (Neutrophil elastase) | IC50 (Cytochrome P450 1A2) | Ki (Cytochrome P450 1A2)

C[C@@H]1O[C@@H](O[C@@H]2C=C3CC[C@@H]4[C@H](CC[C@]5(C)[C@@H](c6ccc(=O)oc6)CC[C@]45O)[C@@]3(C)CC2)[C@H](O)[C@H](O)[C@H]1O [PROSCILLARIDIN]
Not Active: IC50 [1] | IC50 (B2 bradykinin receptor) | IC50 (Thromboxane-A synthase) | IC50 [2] | IC50 (Leukotriene C4 synthase) | IC50 (Neutrophil elastase) | IC50 (Cytochrome P450 1A2) | Ki (Cytochrome P450 1A2)

Oc1cccc(O)c1O [PYROGALLOL]
Not Active: IC50 [1] | IC50 (B2 bradykinin receptor) | IC50 (Thromboxane-A synthase) | IC50 [2] | IC50 (Leukotriene C4 synthase) | IC50 (Neutrophil elastase) | IC50 (Cytochrome P450 1A2) | Ki (Cytochrome P450 1A2)

AURANOFIN
Not Active: IC50 [1] | Ki [1] | IC50 (B2 bradykinin receptor) | Ki (B2 bradykinin receptor) | IC50 (Thromboxane-A synthase) | Ki (Thromboxane-A synthase) | IC50 [2] | Ki [2] | IC50 (Leukotriene C4 synthase) | Ki (Leukotriene C4 synthase) | IC50 (Neutrophil elastase) | Ki (Neutrophil elastase) | IC50 (Cytochrome P450 1A2) | Ki (Cytochrome P450 1A2)

GADOPENTETATE DIMEGLUMINE
Not Active: IC50 [1] | Ki [1] | IC50 (B2 bradykinin receptor) | Ki (B2 bradykinin receptor) | IC50 (Thromboxane-A synthase) | Ki (Thromboxane-A synthase) | IC50 [2] | Ki [2] | IC50 (Leukotriene C4 synthase) | Ki (Leukotriene C4 synthase) | IC50 (Neutrophil elastase) | Ki (Neutrophil elastase) | IC50 (Cytochrome P450 1A2) | Ki (Cytochrome P450 1A2)

GENTAMICIN
Not Active: IC50 [1] | Ki [1] | IC50 (B2 bradykinin receptor) | Ki (B2 bradykinin receptor) | IC50 (Thromboxane-A synthase) | Ki (Thromboxane-A synthase) | IC50 [2] | Ki [2] | IC50 (Leukotriene C4 synthase) | Ki (Leukotriene C4 synthase) | IC50 (Neutrophil elastase) | Ki (Neutrophil elastase) | IC50 (Cytochrome P450 1A2) | Ki (Cytochrome P450 1A2)

GRAMICIDIN
Not Active: IC50 [1] | Ki [1] | IC50 (B2 bradykinin receptor) | Ki (B2 bradykinin receptor) | IC50 [2] | Ki [2] | IC50 (Leukotriene C4 synthase) | Ki (Leukotriene C4 synthase) | IC50 (Neutrophil elastase) | Ki (Neutrophil elastase) | IC50 (Cytochrome P450 1A2) | Ki (Cytochrome P450 1A2)
774 nM: IC50 (Thromboxane-A synthase; read-out: IC50)

NYSTATIN
Not Active: IC50 [1] | Ki [1] | IC50 (B2 bradykinin receptor) | Ki (B2 bradykinin receptor) | IC50 (Thromboxane-A synthase) | Ki (Thromboxane-A synthase) | IC50 [2] | Ki [2] | IC50 (Leukotriene C4 synthase) | Ki (Leukotriene C4 synthase) | IC50 (Neutrophil elastase) | Ki (Neutrophil elastase) | IC50 (Cytochrome P450 1A2) | Ki (Cytochrome P450 1A2)
